Experimental data: patent publication US20090306219A1, “TOPICAL USE OF PLANT EXTRACT FOR SKIN DETOXIFICATION” (priority 2008, published 2009)

Columns and labels:
[1] = tested on: glutathione; experiment: ELISA quantification of glutathione in keratinocyte culture; assay type: cell-based; conditions: 0.0005%, Treatment
Protocol: In simple terms, in ELISA an unknown amount of antigen is affixed to a surface, and then a specific antibody is washed over the surface so that it can bind to the antigen. […] This antibody is linked to an enzyme, and in the final step a substance is added that the enzyme can convert to some detectable signal. Thus in the case of fluorescence ELISA, when light is shone upon the sample, any antigen/antibody complexes will fluoresce so that the amount of antigen in the sample can be measured.
The ELISA kit used in this experiment was purchased from Cayman Chemicals. The experiment was performed as per the manufacturer's directions.

[2] = tested on: glyoxalase I; experiment: Quantification of Glyoxalase I via immunoassay (western blot) in keratinocyte culture; assay type: cell-based; conditions: 0.0005%, keratinocyte culture treated 24 hrs
Protocol: The blots were then transferred and probed with a fluorescent anti-body to glyoxalse I, purchased from Santa Cruz Biotechnology. Absorbance was measured and graphed.

Q: Which results are given for `C=CCSSSCC=C` [Diallyl Trisulfide]?
A: Glut Mean ([1]; Untreated mean 19): 21; Glut 1 ([1]; replicate 1, Untreated 18): 20; abs 1 ([1]; replicate 1 absorbance): 0.033; Glut 2 ([1]; replicate 2, Untreated 20): 22; abs 2 ([1]; replicate 2 absorbance): 0.036; Glut 3 ([1]; replicate 3, Untreated 20): 20; abs 3 ([1]; replicate 3 absorbance): 0.034; Inv OD 1 ([2]; replicate 1): 91.6; OD1 ([2]; replicate 1): 125.205; Inv OD 2 ([2]; replicate 2): 90.7; OD 2 ([2]; replicate 2): 126.011; Inv OD 3 ([2]; replicate 3): 71.1; OD 3 ([2]; replicate 3): 145.641; Inv OD 4 ([2]; replicate 4): 129.4; OD4 ([2]; replicate 4): 87.372; Inv OD 5 ([2]; replicate 5): 93.0; OD 5 ([2]; replicate 5): 123.78; Inv OD 6 ([2]; replicate 6): 86.2; OD 6 ([2]; replicate 6): 130.525; Inv OD Mean ([2]; significantly different from Untreated (mean 66.5)): 93.7
